Data reported in US10406169B2, “Methods of monitoring estriol therapy” (The Regents of the University of California, priority 2015, dated 2019).

Columns and labels:
[1] = system: relapsing-remitting multiple sclerosis; assay: Multiple Sclerosis Functional Composite (PASAT3, 9-hole peg, 25-foot walk); type: in vivo, human; parameters: PASAT3 score, Mean ± SD / PASAT3 score, Median / PASAT3 score change from baseline, Mean ± SD / PASAT3 score change from baseline, Median: scale not given here; 25-foot Walk Time change from baseline, Mean ± SD / 25-foot Walk Time change from baseline, Median: unit not given here
Text: Tertiary end points included gray matter atrophy on MRI, and changes in results from baseline on questionnaires including the Modified Fatigue Impact Scale, Beck Depression Inventory, and MS Quality of Life. Mixed effects negative binomial regression model and linear mixed effects model were used to compare enhancing lesion volume (log-transformed) between treatment groups at all follow-ups, and mixed effects logistic model was used to compare the number of subjects positive for gadolinium enhancing lesions. Linear mixed effects model was carried out to compare the percent change in whole gray matter and cortical gray matter between treatment groups. […] Mixed effects models were used to assess the association among outcomes and estriol levels at all follow-ups and using subjects in both treatment groups. Mixed effects logistic regression model was used to evaluate the association between the number of enhancing lesions and the occurrence of relapse at all follow-up intervals. Linear mixed effects model was carried out to evaluate the association between PASAT change and percent brain volume change, as well as between PASAT change and estriol levels.

[2] = system: relapsing-remitting multiple sclerosis; assay: MRI brain volumes (pairwise Jacobian integration); type: in vivo, human
Description: Mixed effects negative binomial regression model and linear mixed effects model were used to compare enhancing lesion volume (log-transformed) between treatment groups at all follow-ups, and mixed effects logistic model was used to compare the number of subjects positive for gadolinium enhancing lesions. Linear mixed effects model was carried out to compare the percent change in whole gray matter and cortical gray matter between treatment groups. For the exploratory endpoints of EDSS, PASAT, fatigue, depression, quality of life and brain volume measures, linear mixed effects model was used to compare treatment groups at 12 and 24 months.
Dual-echo fast spin echo: TR10000, TE12/95, 50 slices, 1×1×3 mm. Fluid attenuated inversion recovery (FLAIR): TR10380, TE88, TI88, TI2500, 50 slices, 1×1×3 mm. Minor changes were allowed to accommodate different platforms and field strengths at each site. MRI data in Dicom format were fully anonymized prior to transfer and then uploaded to the central MRI reading center database. Prior to study onset, each site provided a dummy scan utilizing the standardized sequences for review by the central MRI reading center to verify scan quality and fidelity. Quality control was maintained at each site using standard procedures for clinical scanners (daily phantoms, stability testing). Quarterly phantoms were collected from 12 of the 15 sites, most using the standard American College of Radiology (ACR) phatom. One site upgraded from a Siemens 1.5T to a 3.0T in November 2013, resulting in the acquisition of one month 24 scan on the new scanner. One site upgraded from a Phillips Achieva 3.0T to a Pillips Intera 3.0T after the first subject completed month 24. All subsequent studies were performed on the Intera.
MRI brain, whole gray matter, whole white matter and cortical gray matter volumes were determined using a pairwise Jacobian integration (PJI) method. Pre-processing for structural T1-weighted images included 1) N3 non-uniformity correction, 2) histogram-based intensity normalization, 3) linear standard space registration using ICBM 2009c nonlinear symmetric template, 4) patch-based brain extraction, and 5) lesion-inpainting. Inputs to PJI were a pair of baseline and follow-up pre-processed structural T1-weighed images. The PJI consisted of 1) linear skull-constrained symmetric registration, 2) halfway transformation and resampling, 3) nonlinear symmetric registration using ANTS, and 4) voxelwise Jacobian determinant calculation on the warp field. Whole gray matter and whole white matter tissue masks were generated by SPM8 Segment function. Additional nonlocal means denoising was applied. For whole brain tissue masks, the whole gray matter and whole white matter masks were combined. For cortical gray matter mask, a standard cortical mask was nonlinearly transformed and merged with gray matter mask. The standard template was the ICBM (ICBM 2009c nonlinear symmetric version), and the nonlinear registration was performed by ANTS. Finally, the Jacobian determinants were averaged within the masks for percent volume change in cortical gray matter, whole gray matter, whole white matter, and whole brain.

[3] = Month 24 (second line, N = 60 / 55)
[4] = Month 24 as printed (first of two lines, N = 70 / 60)
[5] = Patients with baseline score <55, Baseline
[6] = Patients with baseline score <55, Month 12
[7] = Patients with baseline score <55, Month 24
[8] = Baseline to 12 months, all patients
[9] = Baseline to 12 months, all patients, listed as Placebo+GA
[10] = Baseline to 12 months, patients with enhancing lesions at baseline
[11] = Baseline to 12 months, patients without enhancing lesions at baseline
[12] = Baseline to 12 months, patients without enhancing lesions at baseline, listed as Placebo+GA
[13] = Baseline to 24 months, all patients
[14] = Baseline to 24 months, patients with enhancing lesions at baseline
[15] = Baseline to 24 months, patients without enhancing lesions at baseline

## glatiramer acetate [Placebo + GA]
[1]; All patients, Baseline
  PASAT3 score, Mean ± SD: 52.3 ± 9.1
  PASAT3 score, Median: 56
[1]; All patients, Month 12
  PASAT3 score % change from baseline, Mean ± SD: 0.8 ± 9.9%
  PASAT3 score % change from baseline, Median: 0%
  PASAT3 score change from baseline, Mean ± SD: 0.1 ± 4.5
  PASAT3 score change from baseline, Median: 0
[1]; All patients, Month 24
  PASAT3 score % change from baseline, Mean ± SD: 2.7 ± 10.3%
  PASAT3 score % change from baseline, Median: 0%
  PASAT3 score change from baseline, Mean ± SD: 1.1 ± 4.3
  PASAT3 score change from baseline, Median: 0
[1]; Baseline
  9-Hole Peg Test, Mean ± SD: 19.1 ± 2.7
  9-Hole Peg Test, Median: 18.8
  25-foot Walk Time, Median: 4.5 s
  MSFC Score, Mean ± SD: 0.06 ± 0.79
  MSFC Score, Median: 0.24
[1]; Baseline, in s (unit assumed)
  25-foot Walk Time, Mean ± SD: 4.9 ± 1.5
[1]; Month 12
  9-Hole Peg Test change from baseline, Mean ± SD: −0.1 ± 1.8
  9-Hole Peg Test change from baseline, Median: −0.4
  MSFC Score change from baseline, Mean ± SD: 0.06 ± 0.38
[1]; Month 24
  9-Hole Peg Test change from baseline, Mean ± SD: −0.4 ± 1.5
  9-Hole Peg Test change from baseline, Median: −0.5
  MSFC Score change from baseline, Mean ± SD: 0.09 ± 0.43
[1]; [3]
  25-foot Walk Time change from baseline, Mean ± SD: 0.1 ± 1.1
  25-foot Walk Time change from baseline, Median: 0.1
[1]; [4]
  25-foot Walk Time change from baseline, Mean ± SD: 0.0 ± 0.9
  25-foot Walk Time change from baseline, Median: 0.0
[1]; [5]
  PASAT3 score, Mean ± SD: 44.7 ± 9.1
  PASAT3 score, Median: 49
[1]; [6]
  PASAT3 score % change from baseline, Mean ± SD: 4.0 ± 14.0%
  PASAT3 score % change from baseline, Median: 3.8%
  PASAT3 score change from baseline, Mean ± SD: 1.6 ± 6.0
  PASAT3 score change from baseline, Median: 1.0
[1]; [7]
  PASAT3 score % change from baseline, Mean ± SD: 6.9 ± 14.7%
  PASAT3 score % change from baseline, Median: 9.1%
  PASAT3 score change from baseline, Mean ± SD: 3.0 ± 5.9
  PASAT3 score change from baseline, Median: 4.0
[2]; Baseline
  Cortical gray matter baseline volume: 761 ± 42 cc
  White matter baseline volume: 640 ± 32 cc
  Whole brain baseline volume: 1602 ± 51 cc
  Whole gray matter baseline volume: 926 ± 52 cc
[2]; [8]
  Cortical gray matter volume % change, Mean ± SE: −0.74 ± 0.81, %
  Cortical gray matter volume % change, median: −0.69%
  White matter volume % change, Mean ± SE: −0.21 ± 0.82, %
  White matter volume % change, median: −0.15%
  Whole brain volume % change, Mean ± SE: −0.49 ± 0.63, %
  Whole brain volume % change, median: −0.43%
  Whole gray matter volume % change, Mean ± SE: −0.68 ± 0.71, %
  Whole gray matter volume % change, median: −0.66%
[2]; [9]
  Cortical gray matter volume % change, Mean ± SE: −0.74%
  Whole gray matter volume % change, Mean ± SE: −0.68%
[2]; [10]
  Cortical gray matter volume % change, Mean ± SE: −0.67 ± 0.72, %
  Cortical gray matter volume % change, median: −0.69%
  White matter volume % change, Mean ± SE: −0.36 ± 1.06, %
  White matter volume % change, median: −0.14%
  Whole gray matter volume % change, Mean ± SE: −0.65 ± 0.64, %
  Whole gray matter volume % change, median: −0.64%
[2]; [11]
  Cortical gray matter volume % change, Mean ± SE: −0.76 ± 0.85, %
  Cortical gray matter volume % change, median: −0.73%
  White matter volume % change, Mean ± SE: −0.15 ± 0.71, %
  White matter volume % change, median: −0.15%
  Whole gray matter volume % change, Mean ± SE: −0.70 ± 0.74, %
  Whole gray matter volume % change, median: −0.66%
[2]; [12]
  Cortical gray matter volume % change, Mean ± SE: −0.76%
  Whole gray matter volume % change, Mean ± SE: −0.70%
[2]; [13]
  Cortical gray matter volume % change, Mean ± SE: −1.05 ± 0.86, %
  Cortical gray matter volume % change, median: −0.94%
  White matter volume % change, Mean ± SE: −0.52 ± 1.12, %
  White matter volume % change, median: −0.54%
  Whole brain volume % change, Mean ± SE: −0.77 ± 0.72, %
  Whole brain volume % change, median: −0.88%
  Whole gray matter volume % change, Mean ± SE: −0.95 ± 0.75, %
  Whole gray matter volume % change, median: −0.93%
[2]; [14]
  Cortical gray matter volume % change, Mean ± SE: −0.82 ± 0.80, %
  Cortical gray matter volume % change, median: −0.93%
  White matter volume % change, Mean ± SE: −0.62 ± 0.97, %
  White matter volume % change, median: −0.84%
  Whole gray matter volume % change, Mean ± SE: −0.82 ± 0.70, %
  Whole gray matter volume % change, median: −0.92%
[2]; [15]
  Cortical gray matter volume % change, Mean ± SE: −1.12 ± 0.88, %
  Cortical gray matter volume % change, median: −0.94%
  White matter volume % change, Mean ± SE: −0.46 ± 1.17, %
  White matter volume % change, median: −0.48%
  Whole gray matter volume % change, Mean ± SE: −0.98 ± 0.77, %
  Whole gray matter volume % change, median: −0.92%
